Legend:
ileum of the guinea pig = assay: Spasmolytic activity in vivo (effect on the ileum of the guinea pig, contractions induced with intravenous carbachol); conditions: atropine = 1
Method: Effect on the ileum of the guinea pig.
The spasmolytic effect of the compounds was tested on the ilea of urethane-narcotised, empty-stomach guinea pigs of approximately 500 g (Zwagemakers, Arzn. Forsch. 30, 1517 (1980). Contractions of the intestine were induced every 7 minutes with intravenously administered carbachol in a dose of 5 μg per kg of body weight. After constant response had been reached, the test compounds were administered 3 minutes before the next dose of carbachol was given and the protecting effect was studied for 52 minutes. The contractions after administration of the test compounds were expressed as a percentage of the average of two control values. The average percentage of inhibition was calculated throughout the 52 minutes from the region under the curve. The maximum percentage of inhibition and the duration of the spasmolytic effect were also determined. The spasmolytic effect was considered to be finished when two successive contractions were 20% or less of the control value.

[1] = Central muscarinolytic side effect (tremors/analgesia, oxotremorine) relative to spasmolytic activity; conditions: mouse, in vivo, ip
Method: (§1) The choice of the dosage depends on the nature and the severity of the disease.
(§2) 3. Muscarinolytic "side effects".
(§3) The compounds to be tested and oxotremorine were administered intraperitoneally to femal DAP-mice at the same instant or, in case of analgesia, also 30 minutes previously.
(§4) Inhibition of the tremors and/or analgesia caused by oxotremorine is a measure of the central muscarinolytic activity, while the inhibition of saliva secretion or tear secretion reflects the peripheral muscarinolytic activity.

[2] = Peripheral muscarinolytic side effect (saliva/tear secretion, oxotremorine) relative to spasmolytic activity; conditions: mouse, in vivo, ip
Method: as §1, §2, §3, §4

Row | Structure (SMILES) | Spasm. activ. (ileum of the guinea pig) | selectivity ratio [1] | selectivity ratio [2]
1 | CN1[C@@H]2CC[C@H]1C[C@@H](OC(=O)C(CO)c1ccccc1)C2 (stereo partly shown) [Atropine] | 1 |  | 
2 | CCN(CCCC(=O)C1CCCCC1)C(C)Cc1ccc(OC)cc1 (stereo not shown) [Secoverine] | 0.6 | 2 | 50

Source: patent US4889849A, “Spasmolytically active tertiary amine derivatives” (Duphar International Research B.V., priority 1984, dated 1989)
